“Also recorded” adds a separate entry of the source.
Assays:
Format in all cases: physicochemical
[1] = Hygroscopicity by dynamic vapor sorption (DVS) isothermal sorption; settings: for Weight change within 20%-80% RH range: DVS isothermal sorption, relative humidity 20%-80%; for Hygroscopicity in words (compared to Form I): from DVS weight change within 20-80% RH
Protocol: Dynamic vapor sorption (DVS) data were collected using TA Instruments Q500 TGA. The instrument control software was Thermal Advantage, and the analytical software was Universal Analysis. Usually, 1-10 mg of the sample was placed in a platinum pan, and the weight change of the sample during studies was recorded. The relative humidity was usually programed to change from 50% to 80% to 0% and then back to 50%, and an isothermal sorption plot could be generated. Depending on specific situations, different sorption and desorption procedures might be used. Hygroscopicity comparison: DVS isothermal sorption curves were used, and weight changes within the 20%-80% RH range were measured.

[2] = Competitive slurry 1 in nitromethane, solids characterized by XRPD; settings: equal quantity (5 mg) of Form I, II, III, IV and VIII in nitromethane, room temperature, 7 days
From the text: (§1) The slurry method described in the present invention refers to stirring of a supersaturated solution of the sample (with undissolved solids) in various solvent systems for crystallization. Usually, the duration is 14 days.

[3] = Competitive slurry of Form IX and Form I in mixed solvents of ethanol and water, solids characterized by XRPD; settings: equal quantity (4 mg) of Form IX and Form I in 1 mL ethanol and water (1:1, 1:4, 1:5 and 1:10), room temperature, 7 days
[4] = Competitive slurry 2 in mixed solvent of isopropanol and water, solids characterized by XRPD; settings: equal quantity (5 mg) of Form VI and Form IX in 1 mL isopropanol and water (1:4, v/v), room temperature, 7 days
From the text: as §1

Compound	Weight change within 20%-80% RH range [1]	Competitive slurry 1: crystal form after slurry [2]	Competitive slurry: crystal form after slurry [3]	Hygroscopicity in words (compared to Form I) [1]	Hygroscopicity in words (compared to Form I) ([1]; listed as Form. IX)	Competitive slurry 2: crystal form after slurry [4]
CC[C@H](Nc1ncnc2[nH]cnc12)c1nc2cccc(F)c2c(=O)n1-c1ccccc1 [Form I, 5-fluoro-3-phenyl-2-[(S)-1-(9H-purin-6-ylamino)-propyl]-3H-quinazoline-4-one, reference compound]	0.95%	transformed into Form III	transformed into Form IX			
CC[C@H](Nc1ncnc2[nH]cnc12)c1nc2cccc(F)c2c(=O)n1-c1ccccc1 [Form II, 5-fluoro-3-phenyl-2-[(S)-1-(9H-purin-6-ylamino)-propyl]-3H-quinazoline-4-one]	0.46%	transformed into Form III		less hygroscopic		
CC[C@H](Nc1ncnc2[nH]cnc12)c1nc2cccc(F)c2c(=O)n1-c1ccccc1 [Form III, 5-fluoro-3-phenyl-2-[(S)-1-(9H-purin-6-ylamino)-propyl]-3H-quinazoline-4-one]	0.44%	thermodynamically the most stable form; also recorded: III remained unchanged		less hygroscopic		
CC[C@H](Nc1ncnc2[nH]cnc12)c1nc2cccc(F)c2c(=O)n1-c1ccccc1 [Form IV, 5-fluoro-3-phenyl-2-[(S)-1-(9H-purin-6-ylamino)-propyl]-3H-quinazoline-4-one]	0.27%	transformed into Form III		less hygroscopic; also recorded: least hygroscopicity; also recorded: low hygroscopicity		
CC[C@H](Nc1ncnc2[nH]cnc12)c1nc2cccc(F)c2c(=O)n1-c1ccccc1 [Form IX, 5-fluoro-3-phenyl-2-[(S)-1-(9H-purin-6-ylamino)-propyl]-3H-quinazoline-4-one]	0.3%		more stable; also recorded: remained unchanged; also recorded: unchanged, while Form I	less hygroscopic; also recorded: lower hygroscopicity; also recorded: least hygroscopicity	low hygroscopicity	transformed into Form VI; also recorded: Form VI, while Form VI
CC[C@H](Nc1ncnc2[nH]cnc12)c1nc2cccc(F)c2c(=O)n1-c1ccccc1 [Form VI, 5-fluoro-3-phenyl-2-[(S)-1-(9H-purin-6-ylamino)-propyl]-3H-quinazoline-4-one]	0.57%			lower hygroscopicity; also recorded: less hygroscopic		remained unchanged
CC[C@H](Nc1ncnc2[nH]cnc12)c1nc2cccc(F)c2c(=O)n1-c1ccccc1 [Form VIII, 5-fluoro-3-phenyl-2-[(S)-1-(9H-purin-6-ylamino)-propyl]-3H-quinazoline-4-one]	0.84%	transformed into Form III		less hygroscopic; also recorded: low hygroscopicity		

Reference: US20160145258A1, “Inhibitor Crystalline Form and Preparation Method and Use Thereof” (Hangzhou Pushai Pharmaceutical Technology Co., LTD., priority 2013, published 2016)
